Laboratory results from article PMC5702532 (Bioconjugate chemistry, 2016).
Bridge positions count the residues as written; N and C are the ends. Ends that are not written are not given here.

How the values were obtained:
[1] = target: XPNPEP1, APaseP human recombinant protein (Homo sapiens, UniProt Q9NQW7); assay: Biacore binding affinity assay
[2] = system: MCF-7, MDA-MB-231, A-549 and PC-3 cells; assay: Confocal fluorescence detection of cell entry in live carcinoma cells; type: cell-based, human; conditions: 10 μM in media for 60 min; live cells washed 3×; confocal microscopy, TAMRA filter; breast (MCF-7, MDA-MB-231), lung (A-549), prostate (PC-3)

XPNPEP1, APaseP human recombinant protein, sequence (Q9NQW7 whole entry): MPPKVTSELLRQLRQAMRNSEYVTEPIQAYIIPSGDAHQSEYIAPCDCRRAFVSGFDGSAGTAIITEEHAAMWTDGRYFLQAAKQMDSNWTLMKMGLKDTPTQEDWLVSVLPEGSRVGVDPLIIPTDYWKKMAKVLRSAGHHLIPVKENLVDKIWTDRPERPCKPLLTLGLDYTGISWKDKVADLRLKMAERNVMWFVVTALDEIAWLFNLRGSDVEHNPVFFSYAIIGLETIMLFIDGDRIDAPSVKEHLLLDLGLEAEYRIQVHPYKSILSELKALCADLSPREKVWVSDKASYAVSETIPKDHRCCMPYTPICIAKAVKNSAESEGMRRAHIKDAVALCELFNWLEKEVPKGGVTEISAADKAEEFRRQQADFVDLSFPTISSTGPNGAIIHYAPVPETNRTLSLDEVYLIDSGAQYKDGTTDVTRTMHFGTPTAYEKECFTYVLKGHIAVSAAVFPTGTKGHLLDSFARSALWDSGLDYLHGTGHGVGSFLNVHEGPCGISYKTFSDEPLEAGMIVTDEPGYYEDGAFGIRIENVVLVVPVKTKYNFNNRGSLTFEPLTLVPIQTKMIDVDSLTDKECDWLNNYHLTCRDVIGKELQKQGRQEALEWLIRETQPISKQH

Sequence | Kd [1] | Cell entry (fluorescence detection) [2]
RPPGFSPFR [Bradykinin] | 15.3 ± 8 µM | –
CPGPEGAGC (disulfide 1-9 (inferred)) | – | did not enter breast-derived cells
